{"source": "ChEMBL document CHEMBL4800726", "about": "“Data for DCP probe MSC-4381” (2021)", "key": {"[1]": {"target": "Prostaglandin E2 receptor EP4 subtype (Homo sapiens) (UniProt P35408)", "sequence (P35408 whole entry)": "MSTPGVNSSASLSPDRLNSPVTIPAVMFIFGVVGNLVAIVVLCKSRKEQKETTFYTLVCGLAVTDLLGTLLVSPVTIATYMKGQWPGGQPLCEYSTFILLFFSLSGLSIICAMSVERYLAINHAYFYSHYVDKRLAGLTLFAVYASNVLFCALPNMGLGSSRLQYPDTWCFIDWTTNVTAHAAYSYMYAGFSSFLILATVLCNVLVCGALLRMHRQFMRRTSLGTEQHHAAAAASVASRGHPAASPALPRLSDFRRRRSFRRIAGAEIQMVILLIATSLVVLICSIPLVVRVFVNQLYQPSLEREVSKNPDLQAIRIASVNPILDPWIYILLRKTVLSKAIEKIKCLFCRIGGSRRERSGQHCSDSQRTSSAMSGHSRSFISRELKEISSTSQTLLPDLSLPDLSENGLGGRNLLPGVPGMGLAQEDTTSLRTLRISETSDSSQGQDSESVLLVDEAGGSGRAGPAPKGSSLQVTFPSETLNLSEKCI", "test": "EP4 (h) Eurofins-Cerep binding assay", "parameters": "ligand concentration 0.5 nM", "settings": "filed as agonist, Compound concentration 10.0 uM"}, "[2]": {"target": "Melatonin receptor type 1A (Homo sapiens) (UniProt P48039)", "sequence (P48039 whole entry)": "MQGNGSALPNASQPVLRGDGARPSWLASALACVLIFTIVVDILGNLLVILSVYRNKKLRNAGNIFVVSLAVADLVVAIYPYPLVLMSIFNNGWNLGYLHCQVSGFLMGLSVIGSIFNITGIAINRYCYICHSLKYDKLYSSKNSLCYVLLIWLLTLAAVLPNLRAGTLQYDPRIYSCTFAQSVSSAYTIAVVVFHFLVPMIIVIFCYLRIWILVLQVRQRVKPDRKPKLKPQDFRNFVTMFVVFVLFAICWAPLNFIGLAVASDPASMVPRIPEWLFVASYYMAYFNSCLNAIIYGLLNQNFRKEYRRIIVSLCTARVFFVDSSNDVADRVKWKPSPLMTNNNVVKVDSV", "test": "MT1 (ML1A) (h) Eurofins-Cerep binding assay", "parameters": "ligand concentration 0.01 nM", "settings": "filed as agonist, Compound concentration 10.0 uM"}, "[3]": {"target": "Type-1 angiotensin II receptor (Homo sapiens) (UniProt P30556)", "sequence (P30556 whole entry)": "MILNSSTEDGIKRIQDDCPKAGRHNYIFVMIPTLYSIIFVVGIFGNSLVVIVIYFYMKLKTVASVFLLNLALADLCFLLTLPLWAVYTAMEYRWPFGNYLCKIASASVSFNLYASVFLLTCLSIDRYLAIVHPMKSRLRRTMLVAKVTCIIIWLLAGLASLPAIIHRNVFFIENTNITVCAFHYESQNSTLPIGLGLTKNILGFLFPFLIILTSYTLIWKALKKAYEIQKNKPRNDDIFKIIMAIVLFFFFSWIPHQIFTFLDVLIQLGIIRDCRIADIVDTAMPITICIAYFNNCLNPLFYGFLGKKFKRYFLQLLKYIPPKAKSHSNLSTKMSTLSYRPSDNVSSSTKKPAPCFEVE", "test": "AT1 (h) Eurofins-Cerep binding assay", "parameters": "ligand concentration 0.05 nM", "settings": "filed as antagonist, Compound concentration 10.0 uM"}, "[4]": {"target": "Adrenergic receptor alpha-2 (Rattus norvegicus) (UniProt P22086+P19328+P22909)", "test": "Alpha2 (non-selective) Eurofins-Cerep binding assay", "format": "protein assay", "parameters": "ligand concentration 1 nM", "settings": "filed as antagonist, Compound concentration 10.0 uM"}, "[5]": {"target": "Cholecystokinin receptor type A (Homo sapiens) (UniProt P32238)", "sequence (P32238 whole entry)": "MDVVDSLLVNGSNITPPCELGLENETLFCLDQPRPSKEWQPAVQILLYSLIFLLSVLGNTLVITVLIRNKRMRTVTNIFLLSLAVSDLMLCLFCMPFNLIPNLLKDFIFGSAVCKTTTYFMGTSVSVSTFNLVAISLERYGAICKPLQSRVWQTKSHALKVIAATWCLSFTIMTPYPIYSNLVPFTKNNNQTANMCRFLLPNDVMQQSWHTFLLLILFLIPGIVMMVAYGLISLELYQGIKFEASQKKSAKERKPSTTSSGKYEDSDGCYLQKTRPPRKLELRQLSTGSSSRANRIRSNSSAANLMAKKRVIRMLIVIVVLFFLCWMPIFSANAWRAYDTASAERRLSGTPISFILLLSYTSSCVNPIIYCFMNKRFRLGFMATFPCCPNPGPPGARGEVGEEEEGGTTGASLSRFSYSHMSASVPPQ", "test": "CCK1 (CCKA) (h) Eurofins-Cerep binding assay", "parameters": "ligand concentration 0.08 nM", "settings": "filed as agonist, Compound concentration 10.0 uM"}, "[6]": {"target": "Adenosine receptor A2a (Homo sapiens) (UniProt P29274)", "sequence (P29274 whole entry)": "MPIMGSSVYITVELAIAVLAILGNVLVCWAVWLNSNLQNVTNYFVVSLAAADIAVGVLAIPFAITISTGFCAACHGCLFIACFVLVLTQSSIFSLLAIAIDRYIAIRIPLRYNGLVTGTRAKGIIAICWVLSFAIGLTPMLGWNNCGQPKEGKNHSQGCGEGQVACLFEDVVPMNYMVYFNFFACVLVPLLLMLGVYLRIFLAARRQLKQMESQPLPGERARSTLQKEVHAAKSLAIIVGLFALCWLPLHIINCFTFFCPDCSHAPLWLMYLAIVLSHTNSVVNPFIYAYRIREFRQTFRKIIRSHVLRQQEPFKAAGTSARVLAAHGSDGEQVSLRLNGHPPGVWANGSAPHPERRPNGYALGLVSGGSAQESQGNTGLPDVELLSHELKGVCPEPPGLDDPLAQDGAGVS", "test": "A2A (h) Eurofins-Cerep binding assay", "parameters": "ligand concentration 6 nM", "settings": "filed as agonist, Compound concentration 10.0 uM"}, "[7]": {"target": "Nociceptin receptor (Homo sapiens) (UniProt P41146)", "sequence (P41146 whole entry)": "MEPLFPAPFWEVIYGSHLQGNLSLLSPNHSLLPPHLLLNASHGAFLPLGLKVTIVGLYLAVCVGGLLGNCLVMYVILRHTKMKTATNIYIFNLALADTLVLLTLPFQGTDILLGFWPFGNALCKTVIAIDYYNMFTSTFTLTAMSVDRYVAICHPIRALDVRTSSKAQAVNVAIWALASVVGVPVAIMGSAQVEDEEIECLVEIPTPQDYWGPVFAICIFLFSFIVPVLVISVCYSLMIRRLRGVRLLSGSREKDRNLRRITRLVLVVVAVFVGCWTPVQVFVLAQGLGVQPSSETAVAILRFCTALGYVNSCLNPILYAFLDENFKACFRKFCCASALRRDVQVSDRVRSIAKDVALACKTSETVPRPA", "test": "NOP (ORL1) (h) Eurofins-Cerep binding assay", "parameters": "ligand concentration 0.06 nM", "settings": "filed as agonist, Compound concentration 10.0 uM"}, "[8]": {"target": "5-hydroxytryptamine receptor 1E (Homo sapiens, UniProt P28566)", "sequence (P28566 whole entry)": "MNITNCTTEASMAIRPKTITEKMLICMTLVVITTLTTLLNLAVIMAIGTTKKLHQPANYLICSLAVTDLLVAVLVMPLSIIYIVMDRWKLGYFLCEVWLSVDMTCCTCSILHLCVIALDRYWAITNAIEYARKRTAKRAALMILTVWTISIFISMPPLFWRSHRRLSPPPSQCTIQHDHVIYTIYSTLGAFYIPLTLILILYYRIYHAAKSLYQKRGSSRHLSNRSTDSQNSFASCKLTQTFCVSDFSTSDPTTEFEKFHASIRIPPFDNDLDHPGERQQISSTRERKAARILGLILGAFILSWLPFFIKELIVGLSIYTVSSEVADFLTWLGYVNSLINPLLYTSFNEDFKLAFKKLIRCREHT", "test": "GPCRScan assay: inhibition of 5-HT1E", "parameters": "radioligand conc. used [nm] 2.1 – 5.0, parental cells stable HEK"}}, "data": [{"smiles": "CCOc1ccc(S(=O)(=O)Nc2ccc(Cl)cc2C#Cc2cnc(C(=O)O)cc2OC)c2ncccc12", "note": "[MSC-4381]", "values": [{"measurement": "% Inhibition of Control Specific Binding (Mean n=2)", "setting": "[1]", "value": 47.2, "unit": "%"}, {"measurement": "% Inhibition of Control Specific Binding (Mean n=2)", "setting": "[2]", "value": 15.3, "unit": "%"}, {"measurement": "% Inhibition of Control Specific Binding (Mean n=2)", "setting": "[3]", "value": 4.2, "unit": "%"}, {"measurement": "% Inhibition of Control Specific Binding (Mean n=2)", "setting": "[4]", "value": -8.2, "unit": "%"}, {"measurement": "% Inhibition of Control Specific Binding (Mean n=2)", "setting": "[5]", "value": -18.1, "unit": "%"}, {"measurement": "% Inhibition of Control Specific Binding (Mean n=2)", "setting": "[6]", "value": -5.5, "unit": "%"}, {"measurement": "% Inhibition of Control Specific Binding (Mean n=2)", "setting": "[7]", "value": -14.7, "unit": "%"}, {"measurement": "Ki", "setting": "[8]", "value": "> 10", "unit": "µM"}, {"measurement": "pKi", "setting": "[8]", "value": "< 5"}]}]}
